In general, Ki refers to the equilibrium dissociation constant of an inhibitor or competing ligand from its target. Read a low Ki as higher affinity. As a reminder, the IC50 is the concentration at which inhibition is half-maximal.

The source of these data is patent publication US9079866B2, “Flap modulators” (JANSSEN PHARMACEUTICA NV, priority 2013, dated 2015).

Experiment [1] deals with human FLAP (Homo sapiens (Human), UniProt P20292). The experiment can be described thus: FLAP binding assay (HTRF format). The note with it: human FLAP wild type, HTRF format; average of two plates, duplicates. An outline of the steps: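 Samples were run in duplicate on each of two plates and the plate results averaged. Read-out is the HTRF signal ratio.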
human FLAP, sequence (P20292 whole entry): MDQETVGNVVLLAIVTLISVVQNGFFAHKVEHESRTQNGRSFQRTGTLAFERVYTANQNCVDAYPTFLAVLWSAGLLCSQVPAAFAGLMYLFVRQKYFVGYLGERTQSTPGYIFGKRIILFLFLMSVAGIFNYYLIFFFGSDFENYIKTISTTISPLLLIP
The subject of experiment [2] is leukotriene pathway in human whole blood (LTB4 levels). As to the kind of experiment: Human whole blood assay (A23187-stimulated LTB4). It counts as cell-based. The note with it: Homo sapiens, human whole blood diluted 1:1 in RPMI, A23187-stimulated LTB4; read-out: LTB4 IC50 1:1. An outline of the steps: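 Heparinised human whole blood, diluted 1:1 in RPMI, was pre-incubated with test compounds for 15 min at 37° Celsius, then stimulated with A23187 (7 μg/mL) for 30 min at 37° Celsius. Plasma LTB4 was measured by immunoassay kit; IC50 from 4-parameter fit; single replicate, at least one healthy donor.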

Turning to `Nc1cnc(-c2ccc(-c3ccccc3S(=O)(=O)N3CC(F)(F)C3)cc2F)cn1` [Example 52, 5-{2′-[(3,3-Difluoroazetidin-1-yl)sulfonyl]-3-fluorobiphenyl-4-yl}pyrazin-2-amine], affinity in experiment [1] was put at a Ki of 4 nM. Besides, the half-maximal inhibitory concentration (IC50) in experiment [2] was 155 nM.

`Nc1cnc(-c2ccc(-c3ccccc3S(=O)(=O)N3CCCCCC3)cc2F)cn1` [Example 53, 5-[2′-(Azepan-1-ylsulfonyl)-3-fluorobiphenyl-4-yl]pyrazin-2-amine] registered a Ki in experiment [1] of 3 nM. Further, the IC50 in experiment [2] was 238 nM.

The compound `CN1CCN(S(=O)(=O)c2ccccc2-c2ccc(-c3cnc(N)cn3)c(F)c2)CC1` [Example 54, 5-{3-Fluoro-2′-[(4-methylpiperazin-1-yl)sulfonyl]biphenyl-4-yl}pyrazin-2-amine] showed a Ki in experiment [1] of 20 nM. Further, in experiment [2], the half-inhibitory concentration (IC50) stood at 23 nM.

The compound `Nc1cnc(-c2ccc(-c3ccccc3S(=O)(=O)N3CCC(O)(C(F)(F)F)CC3)cc2F)cn1` [Example 55, 1-{[4′-(5-Aminopyrazin-2-yl)-3′-fluorobiphenyl-2-yl]sulfonyl}-4-(trifluoromethyl)piperidin-4-ol] showed an inhibitory constant (Ki) in experiment [1] of 1 nM. The 50% inhibitory concentration (IC50) in experiment [2] was 1230 nM.

`CS(=O)(=O)N1CCN(S(=O)(=O)c2ccccc2-c2ccc(-c3cnc(N)cn3)c(F)c2)CC1` [Example 56, 5-(3-Fluoro-2′-{[4-(methylsulfonyl)piperazin-1-yl]sulfonyl}biphenyl-4-yl)pyrazin-2-amine] gave a Ki in experiment [1] of 11 nM. For the same compound, the half-inhibitory concentration (IC50) in experiment [2] is 3520 nM.

In experiment [1], `CC(=O)N1CCN(S(=O)(=O)c2ccccc2-c2ccc(-c3cnc(N)cn3)c(F)c2)CC1` [Example 57, 5-{2′-[(4-Acetylpiperazin-1-yl)sulfonyl]-3-fluorobiphenyl-4-yl}pyrazin-2-amine] gave a Ki of 15 nM. Moreover, the half-maximal inhibitory concentration (IC50) in experiment [2] was 252 nM.

Compound `Nc1cnc(-c2ccc(-c3ccccc3S(=O)(=O)N3CCN(C(=O)C4CC4)CC3)cc2F)cn1` [Example 58, 5-(2′-{[4-(Cyclopropylcarbonyl)piperazin-1-yl]sulfonyl}-3-fluorobiphenyl-4-yl)pyrazin-2-amine] displayed a Ki in experiment [1] of 5 nM. Further, the IC50 in experiment [2] came to 991 nM.

`Nc1cnc(-c2ccc(-c3ccccc3S(=O)(=O)N3CCN(CCO)CC3)cc2F)cn1` [Example 59, 2-(4-{[4′-(5-Aminopyrazin-2-yl)-3′-fluorobiphenyl-2-yl]sulfonyl}piperazin-1-yl)ethanol] gave a Ki in experiment [1] of 20 nM. Further, the 50% inhibitory concentration (IC50) in experiment [2] was 1020 nM.

Compound `Nc1cnc(-c2ccc(-c3ccccc3S(=O)(=O)N3CCN(C4CC4)CC3)cc2F)cn1` [Example 60, 5-{2′-[(4-Cyclopropylpiperazin-1-yl)sulfonyl]-3-fluorobiphenyl-4-yl}pyrazin-2-amine] came in with a Ki in experiment [1] of 28 nM. For the same compound, the IC50 in experiment [2] came to 464 nM.

`N#CC1CCN(S(=O)(=O)c2ccccc2-c2ccc(-c3cnc(N)cn3)c(F)c2)CC1` [Example 64, 1-{[4′-(5-Aminopyrazin-2-yl)-3′-fluorobiphenyl-2-yl]sulfonyl}piperidine-4-carbonitrile]: the Ki in experiment [1] worked out at 2 nM. In addition, the half-maximal inhibitory concentration (IC50) in experiment [2] was 6 nM.

Turning to `Nc1cnc(-c2ccc(-c3ccccc3S(=O)(=O)N3CCC(N)CC3)cc2F)cn1` [Example 65, 5-{2′-[(4-Aminopiperidin-1-yl)sulfonyl]-3-fluorobiphenyl-4-yl}pyrazin-2-amine], the Ki in experiment [1] is 49 nM. In experiment [2], the IC50 came out at 322 nM.

In experiment [1], `Nc1cnc(-c2ccc(-c3ccccc3S(=O)(=O)N3CCNC(=O)C3)cc2F)cn1` [Example 66, 4-{[4′-(5-Aminopyrazin-2-yl)-3′-fluorobiphenyl-2-yl]sulfonyl}piperazin-2-one] registered a Ki of 21 nM. The IC50 in experiment [2] was 69 nM.

`Nc1cnc(-c2ccc(-c3ccccc3S(=O)(=O)N3CCC(O)CC3)cc2F)cn1` [Example 67, 1-{[4′-(5-Aminopyrazin-2-yl)-3′-fluorobiphenyl-2-yl]sulfonyl}piperidin-4-ol] gave a Ki in experiment [1] of 3 nM. For the same compound, the 50% inhibitory concentration (IC50) in experiment [2] came to 12 nM.

`Nc1cnc(-c2ccc(-c3ccccc3S(=O)(=O)N3CCC(CO)CC3)cc2F)cn1` [Example 68, (1-{[4′-(5-Aminopyrazin-2-yl)-3′-fluorobiphenyl-2-yl]sulfonyl}piperidin-4-yl)methanol] had a Ki in experiment [1] of 1 nM. In experiment [2], the 50% inhibitory concentration (IC50) was found to be 6 nM.

Take `Nc1cnc(-c2ccc(-c3ccccc3S(=O)(=O)N3CCC(CCO)CC3)cc2F)cn1` [Example 69, 2-(1-{[4′-(5-Aminopyrazin-2-yl)-3′-fluorobiphenyl-2-yl]sulfonyl}piperidin-4-yl)ethanol]: the Ki in experiment [1] came to 1 nM. Further, in experiment [2], the half-inhibitory concentration (IC50) turned out to be 8 nM.

In turn, `CNC1CCN(S(=O)(=O)c2ccccc2-c2ccc(-c3cnc(N)cn3)c(F)c2)CC1` [Example 72, 5-(3-Fluoro-2′-{[4-(methylamino)piperidin-1-yl]sulfonyl}biphenyl-4-yl)pyrazin-2-amine] came in with a Ki in experiment [1] of 111 nM. For the same compound, in experiment [2], the IC50 came out at 168 nM.

Compound `CN(C)C1CCN(S(=O)(=O)c2ccccc2-c2ccc(-c3cnc(N)cn3)c(F)c2)CC1` [Example 73, 5-(2′-{[4-(Dimethylamino)piperidin-1-yl]sulfonyl}-3-fluorobiphenyl-4-yl)pyrazin-2-amine] displayed an inhibitory constant (Ki) in experiment [1] of 62 nM. Besides, the IC50 in experiment [2] worked out at 77 nM.

`CC(=O)NC1CCN(S(=O)(=O)c2ccccc2-c2ccc(-c3cnc(N)cn3)c(F)c2)CC1` [Example 75, N-(1-{[4′-(5-Aminopyrazin-2-yl)-3′-fluorobiphenyl-2-yl]sulfonyl}piperidin-4-yl)acetamide] returned a Ki in experiment [1] of 12 nM. Also, in experiment [2], the IC50 was determined as 185 nM.

For the compound `Nc1cnc(-c2ccc(-c3ccccc3S(=O)(=O)N[C@@H](CO)[C@@H](O)c3ccccc3)cc2F)cn1` [Example 78, 4′-(5-Aminopyrazin-2-yl)-3′-fluoro-N-[(1S,2S)-2-hydroxy-1-(hydroxymethyl)-2-phenylethyl]biphenyl-2-sulfonamide], in experiment [1], the affinity corresponds to a Ki of 1 nM. Further, the IC50 in experiment [2] was 166 nM.

Regarding `CC(C)C[C@@H](CO)NS(=O)(=O)c1ccccc1-c1ccc(-c2cnc(N)cn2)c(F)c1` [Example 79, 4′-(5-Aminopyrazin-2-yl)-3′-fluoro-N-[(1S)-1-(hydroxymethyl)-3-methylbutyl]biphenyl-2-sulfonamide], in experiment [1], the Ki was determined as 5 nM. In experiment [2], the IC50 was 150 nM.

`Nc1cnc(-c2ccc(-c3ccccc3S(=O)(=O)N[C@H](CO)c3ccccc3)cc2F)cn1` [Example 81, 4′-(5-Aminopyrazin-2-yl)-3′-fluoro-N-[(1S)-2-hydroxy-1-phenylethyl]biphenyl-2-sulfonamide]: the Ki in experiment [1] is 6 nM. In addition, the half-inhibitory concentration (IC50) in experiment [2] is 152 nM.

Take `Nc1cnc(-c2ccc(-c3ccccc3S(=O)(=O)N[C@@H](CO)c3ccccc3)cc2F)cn1` [Example 82, 4′-(5-Aminopyrazin-2-yl)-3′-fluoro-N-[(1R)-2-hydroxy-1-phenylethyl]biphenyl-2-sulfonamide]: affinity in experiment [1] was put at a Ki of 1 nM. Also, the IC50 in experiment [2] amounted to 18 nM.

With `CC[C@H](C)[C@@H](CO)NS(=O)(=O)c1ccccc1-c1ccc(-c2cnc(N)cn2)c(F)c1` [Example 84, 4′-(5-Aminopyrazin-2-yl)-3′-fluoro-N-[(1S,2S)-1-(hydroxymethyl)-2-methylbutyl]biphenyl-2-sulfonamide], in experiment [1], affinity was put at a Ki of 3 nM. Besides, the IC50 in experiment [2] came out at 97 nM.
